In data set [1] the target is T1, human SSTR2 (Homo sapiens, UniProt P30874).
T1 construct: Myc; expressed in transfected cells
The data set is described as follows: Evaluation of SSTR2 agonistic activity using cells expressing human SSTR2 (suppression of forskolin-stimulated cAMP production, SSTR2-CHO-K1). The class given is cell-based. The note with it: suppression of cAMP production by forskolin stimulation, 1000 nmol/L octreotide = 100%.

In data set [2] the target is T2, hERG K+ channel (Homo sapiens, UniProt Q12809).
T2 construct: expressed in transfected cells; host or cells: CHO-K1
T2 sequence (Q12809 whole entry): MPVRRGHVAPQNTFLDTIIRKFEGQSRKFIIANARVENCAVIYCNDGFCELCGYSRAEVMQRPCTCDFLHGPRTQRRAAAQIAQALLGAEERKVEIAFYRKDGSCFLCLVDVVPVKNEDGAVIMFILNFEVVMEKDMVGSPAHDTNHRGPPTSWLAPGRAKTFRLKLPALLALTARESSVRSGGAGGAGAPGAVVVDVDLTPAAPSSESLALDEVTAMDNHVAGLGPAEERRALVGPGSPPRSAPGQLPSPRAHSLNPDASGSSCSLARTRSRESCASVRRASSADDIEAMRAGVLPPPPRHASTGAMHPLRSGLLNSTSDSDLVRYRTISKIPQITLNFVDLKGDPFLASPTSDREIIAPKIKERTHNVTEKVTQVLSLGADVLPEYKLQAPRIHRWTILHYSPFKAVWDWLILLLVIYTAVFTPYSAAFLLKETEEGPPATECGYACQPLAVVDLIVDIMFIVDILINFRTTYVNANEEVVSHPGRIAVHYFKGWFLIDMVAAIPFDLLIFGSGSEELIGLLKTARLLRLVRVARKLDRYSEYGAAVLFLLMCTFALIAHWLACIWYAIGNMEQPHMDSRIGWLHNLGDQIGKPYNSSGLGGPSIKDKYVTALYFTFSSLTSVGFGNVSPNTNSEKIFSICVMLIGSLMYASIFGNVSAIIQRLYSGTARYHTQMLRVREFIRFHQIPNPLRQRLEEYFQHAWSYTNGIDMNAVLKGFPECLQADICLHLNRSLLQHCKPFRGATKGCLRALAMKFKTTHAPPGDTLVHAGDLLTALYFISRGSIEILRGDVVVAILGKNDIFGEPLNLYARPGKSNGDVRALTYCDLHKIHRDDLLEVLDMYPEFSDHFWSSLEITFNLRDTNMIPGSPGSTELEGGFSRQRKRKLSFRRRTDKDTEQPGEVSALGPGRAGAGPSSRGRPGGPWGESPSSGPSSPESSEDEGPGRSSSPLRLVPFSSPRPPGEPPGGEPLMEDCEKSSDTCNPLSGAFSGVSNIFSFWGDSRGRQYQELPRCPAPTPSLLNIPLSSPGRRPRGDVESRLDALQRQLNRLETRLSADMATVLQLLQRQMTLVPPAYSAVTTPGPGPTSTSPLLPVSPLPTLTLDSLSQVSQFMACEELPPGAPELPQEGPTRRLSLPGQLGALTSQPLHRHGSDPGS
The data set is described as follows: Evaluation of hERG K+ channel inhibitory activity using cells expressing human ERG (automated patch-clamp, CHO-K1). The note with it: CHO-K1 cells with human ERG gene, tested at 1, 3 and 10 μmol/L, 5-minute incubation. The data set is classed as cell-based. Here is the method:
Evaluation of hERG K^+ Channel Inhibitory Activity Using Cells Expressing Human ERG
CHO-K1 cells having the human ERG gene (ether-a-go-go related gene) introduced therein were subcultured in an F-12 medium [F-12 Nutrient Mixture (HAM)] containing 10% inactivated foetal bovine serum, 100 IU/mL penicillin-100 μg/mL streptomycin and 200 μg/mL geneticin.
Patch-clamp was performed in a full-automated manner using CHO-K1 cells having the human ERG gene introduced therein and having a perforated patch formed therein with amphotericin B. For the experiment, a 384-well PatchPlate™ was used and the cell suspension and compounds were added thereto. The IKr current was measured with command voltages of holding potential of −80 mV, depolarization potential of +40 mV (2 seconds) and repolarization potential of −50 mV (2 seconds). The stimulation frequency was twice (single pulse stimulations) before and after the treatment with a drug (the concentrations of a compound for evaluation were 1, 3 and 10 μmol/L, a 5-minute incubation), and the Ikr maximum current was measured. The inhibition (%) on the CHO-K1 cells having the human ERG gene introduced therein was determined by correcting the variation in the maximum tail current before and after addition of the test substance by the variation thereof in the group treated with a medium (inhibition (%)=(1-variation in current before and after addition of a test substance/variation in current before and after addition of a medium)×100). The 50% inhibitory concentration (IC50 value) was calculated from a line connecting two points on both sides of the inhibition of 50%.

Data set [3] concerns Chinese hamster lung-derived CHL/IU cells. The data set is described as follows: Evaluation of phospholipidosis induction ability using cultured cell line (NBD-PE incorporation). The data set is classed as cell-based. The note with it: 24 hours, positive = 25% or more of amiodarone maximum reaction at cell viability 50% or more; for phospholipidosis induction ability (judgement): 6.25-100 μmol/L. Here is the method:
Chinese hamster lung-derived CHL/IU cells were suspended in an MEM-E culture solution containing non-essential amino acids, sodium pyruvate and 10% foetal bovine serum and seeded in a 96-well plate. The cells cultured overnight in an incubator (5% carbon dioxide, 95% air, 37° C.) were further cultured for 24 hours after replacing the culture solution with a culture solution containing 6.25, 12.5, 25, 50 or 100 μmol/L of a test substance and NBD-PE (fluorescence label N-(7-nitrobenz-2-oxa-1,3-diazol-4-yl)-1,2-dihexadecanoyl-sn-glycero-3-phosphoethanolamine triethylammonium salt) obtained from Molecular Probes. The phospholipidosis induction ability was evaluated by measuring the concentration of NBD-PE incorporated into the cells. Specifically, the cells were washed twice with PBS and then measured for the fluorescence of NBD-PE (excitation wavelength: 485 nm, fluorescence wavelength: 535 nm) incorporated in the cells on a SpectraMax plate reader available from Molecular Devices, LLC. for evaluation. After measurement of the fluorescence of NBD-PE, the cell viability was evaluated with Premix WST-1 Cell Proliferation Assay System available from TaKaRa Bio Inc. The phospholipidosis induction ability was judged to be positive when, at a dose that provided a cell viability of 50% or more, the reaction (the concentration of NBD-PE incorporated after administration of a test substance) was 25% or more of the maximum reaction of a positive control amiodarone (the concentration of NBD-PE incorporated into the cells after administration of amiodarone was regarded as 100%).

Data set [4] deals with GH secretion. Briefly: Evaluation of suppression of growth hormone (GH) secretion using rats (GHRH-induced). To be noted: Rattus norvegicus, 5 min, oral, dosage of 1 mg/kg, GHRH given 8 hours after dosing, blood GH 5 minutes after GHRH. The class given is in vivo. The protocol:
A medium (distilled water (Otsuka distilled water, Otsuka Pharmaceutical Factory, Inc.)) or a test compound dissolved in the medium was orally administered to rats (7-week old male Crl:CD(SD) IGS rats (Charles River Laboratories Japan, Inc.)) and after 7 hours and 57 minutes, the animals were administered with 50 mg/kg of pentobarbital sodium (Somnopentyl, Kyoritsu Seiyaku Corporation) via the tail vein for anaesthesia. Three minutes after administration of pentobarbital sodium, the rats were administered with 0.01 mg/kg of growth hormone-releasing hormone (GHRH, Bachem) via the tail vein to induce GH secretion. In order to measure the blood GH concentration, 0.2 mL of blood was collected through the jugular vein at 5 minutes after administration of GHRH. The collected blood was centrifuged at 4° C., 13,000×g for 5 minutes to obtain plasma. The blood GH concentration was measured by using Rat/Mouse Growth Hormone ELISA (Millipore) following the instruction of the kit. The percentage (%) of suppression of GH secretion was determined by using the obtained blood GH concentration and the equation {[suppression (%) of GH secretion]=([blood GH concentration of the group administered with the medium]−[blood GH concentration of the group administered with a test compound])/[blood GH concentration of the group administered with the medium]×100}. In the equation, the group administered with the medium represents the group of animals administered with the medium and the group administered with a test compound represents the group of animals administered with a test compound dissolved in the medium.

The target of data set [5] is somatostatin receptor subtype 2 (SSTR2) (Homo sapiens, UniProt P30874). The note with it: reported in background art; cited from earlier work.
somatostatin receptor subtype 2 (SSTR2), sequence (P30874 whole entry, species assumed): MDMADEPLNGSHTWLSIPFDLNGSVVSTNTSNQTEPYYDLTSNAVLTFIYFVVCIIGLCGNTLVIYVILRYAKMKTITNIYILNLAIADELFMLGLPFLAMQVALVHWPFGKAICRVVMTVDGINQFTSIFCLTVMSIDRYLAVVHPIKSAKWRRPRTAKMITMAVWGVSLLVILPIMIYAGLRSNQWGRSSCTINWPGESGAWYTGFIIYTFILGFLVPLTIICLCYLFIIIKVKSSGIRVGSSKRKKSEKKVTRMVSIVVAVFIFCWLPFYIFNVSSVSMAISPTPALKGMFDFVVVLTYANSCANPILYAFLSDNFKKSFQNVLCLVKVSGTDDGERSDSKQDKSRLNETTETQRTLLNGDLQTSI
Data set [6] deals with somatostatin receptor subtype 3 (SSTR3) (Homo sapiens, UniProt P32745). The note with it: reported in background art; cited from earlier work.
somatostatin receptor subtype 3 (SSTR3), sequence (P32745 whole entry, species assumed): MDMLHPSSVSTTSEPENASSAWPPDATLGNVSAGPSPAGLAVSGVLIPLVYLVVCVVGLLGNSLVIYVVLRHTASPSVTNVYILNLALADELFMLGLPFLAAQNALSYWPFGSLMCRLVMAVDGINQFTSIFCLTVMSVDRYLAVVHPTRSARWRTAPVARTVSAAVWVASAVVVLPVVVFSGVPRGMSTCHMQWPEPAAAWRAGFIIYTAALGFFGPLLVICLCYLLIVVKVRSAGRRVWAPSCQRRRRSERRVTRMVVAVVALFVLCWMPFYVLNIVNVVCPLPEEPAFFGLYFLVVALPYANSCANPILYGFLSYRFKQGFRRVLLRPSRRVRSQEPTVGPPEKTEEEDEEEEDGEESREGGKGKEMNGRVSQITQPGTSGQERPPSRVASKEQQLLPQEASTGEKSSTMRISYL
Data set [7] deals with somatostatin receptor subtype 1 (SSTR1) (Homo sapiens, UniProt P30872). To be noted: reported in background art; cited from earlier work.
somatostatin receptor subtype 1 (SSTR1), sequence (P30872 whole entry, species assumed): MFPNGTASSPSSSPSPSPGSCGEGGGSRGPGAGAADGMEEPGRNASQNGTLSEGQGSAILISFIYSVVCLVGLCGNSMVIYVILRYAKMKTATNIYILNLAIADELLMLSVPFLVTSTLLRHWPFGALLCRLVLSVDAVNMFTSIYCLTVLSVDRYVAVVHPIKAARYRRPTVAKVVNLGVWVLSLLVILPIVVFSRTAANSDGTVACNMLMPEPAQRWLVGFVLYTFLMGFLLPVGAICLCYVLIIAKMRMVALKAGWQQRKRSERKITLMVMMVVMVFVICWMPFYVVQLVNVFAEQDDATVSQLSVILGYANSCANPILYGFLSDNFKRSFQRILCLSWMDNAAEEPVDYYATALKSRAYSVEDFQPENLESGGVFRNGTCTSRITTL
Data set [8] has as its target somatostatin receptor subtype 4 (SSTR4) (Homo sapiens, UniProt P31391). To be noted: reported in background art; cited from earlier work.
Data set [9] has as its system gastric acid secretion. The data set is described as follows: Evaluation of suppression of gastric acid secretion using rats (pyloric ligation). The class given is in vivo, rat. The note with it: continuous intravenous administration, 1 μg/kg/h.

The structures appear in SMILES notation.

T1 sequence (P30874 whole entry): as the sequence (P30874 whole entry, species assumed) above
somatostatin receptor subtype 4 (SSTR4), sequence (P31391 whole entry, species assumed): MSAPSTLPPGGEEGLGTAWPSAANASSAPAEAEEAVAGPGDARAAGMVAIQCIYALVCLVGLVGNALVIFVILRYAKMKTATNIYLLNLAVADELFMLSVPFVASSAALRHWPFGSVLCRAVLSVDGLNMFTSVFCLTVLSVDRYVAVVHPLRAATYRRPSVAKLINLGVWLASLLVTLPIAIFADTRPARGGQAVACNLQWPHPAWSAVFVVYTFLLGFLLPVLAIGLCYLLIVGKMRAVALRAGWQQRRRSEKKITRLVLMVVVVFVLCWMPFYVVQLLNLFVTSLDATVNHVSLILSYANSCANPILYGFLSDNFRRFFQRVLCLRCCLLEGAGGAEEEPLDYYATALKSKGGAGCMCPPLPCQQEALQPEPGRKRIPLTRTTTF

The term EC50 denotes the concentration at which the effect is half-maximal. Low readings indicate higher potency in that assay, high ones lower potency in that assay. One may read the IC50 as the concentration needed to halve the response being measured. A high value points to weaker potency in that assay. Usually inhibition in vivo stands for the drop in the measured response relative to a control, in per cent. Low values mean a weak effect, high ones a strong effect. For the molecule `Cc1ncc(-c2cc(F)cc(F)c2)c(N2CC[C@@H](NCCC(F)(F)F)[C@@H](O)C2)c1-c1nc2cc(F)c(F)cc2[nH]1` [Example 3(12), (3S,4R)-1-[3-(5,6-difluoro-1H-benzimidazol-2-yl)-5-(3,5-difluorophenyl)-2-methyl-4-pyridinyl]-4-[(3,3,3-trifluoropropyl)amino]-3-piperidinol], the EC50 in data set [1] worked out at 1 nM. For the same molecule, in data set [2], the concentration for half-maximal inhibition (IC50) was 5100 nM. For the same molecule, the “phospholipidosis induction ability (judgement)” value in data set [3] is “negative”. Further, in data set [4], at 1 mg/kg the inhibition in vivo was 85%.

For the molecule `COC(=O)c1cc(F)cc2nc(-c3cncc(-c4cc(F)ccc4F)c3N3CC[C@@H](N)[C@@H](O)C3)[nH]c12` [Example 4(16), Methyl 2-{4-[(3S,4R)-4-amino-3-hydroxy-1-piperidinyl]-5-(2,5-difluorophenyl)-3-pyridinyl}-5-fluoro-1H-benzimidazole-7-carboxylate], the midpoint of the response in [1], the EC50, lay at 0.005 nM. In [2], this molecule came in with an IC50 of 3900 nM. Further, the “concentration at which judged to be positive in phospholipidosis induction ability” value in data set [3] came out at 25 µM. In addition, the inhibition in vivo at 1 mg/kg in data set [4] was determined as 67%.

`CCN[C@@H]1CCN(c2c(-c3nc4cc(F)c(F)cc4[nH]3)cncc2-c2cc(F)ccc2F)C[C@@H]1O` [Example 5(4), (3S,4R)-1-[3-(5,6-difluoro-1H-benzimidazol-2-yl)-5-(2,5-difluorophenyl)-4-pyridinyl]-4-(ethylamino)-3-piperidinol]: the EC50 in data set [1] worked out at 0.031 nM. The same molecule displayed an IC50 in data set [2] of 8400 nM. The “phospholipidosis induction ability (judgement)” value in data set [3] was “negative”. Besides, the inhibition in vivo at 1 mg/kg in data set [4] came to 90%.

Molecule `COc1cc2nc(-c3cncc(-c4cc(F)cc(F)c4)c3N3CC[C@@H](NCCC(F)(F)F)[C@@H](O)C3)[nH]c2cc1F` [Example 5(6), (3S,4R)-1-[3-(3,5-difluorophenyl)-5-(6-fluoro-5-methoxy-1H-benzimidazol-2-yl)-4-pyridinyl]-4-[(3,3,3-trifluoropropyl)amino]-3-piperidinol] yielded an EC50 in data set [1] of 0.067 nM. In addition, in data set [2], the IC50 is at least 10000 nM. The “phospholipidosis induction ability (judgement)” value in data set [3] is “negative”. In [4], this molecule registered an inhibition in vivo at 1 mg/kg of 83%.

`O[C@H]1CN(c2c(-c3cc(F)cc(F)c3)cncc2-c2nc3cc(F)c(F)cc3[nH]2)CC[C@H]1NC1COC1` [Example 5, (3S,4R)-1-[3-(5,6-difluoro-1H-benzimidazol-2-yl)-5-(3,5-difluorophenyl)-4-pyridinyl]-4-(3-oxetanylamino)-3-piperidinol] returned an EC50 in data set [1] of 0.14 nM. The molecule further displayed an IC50 in data set [2] of 7600 nM. Also, the “phospholipidosis induction ability (judgement)” value in data set [3] is listed as “negative”. The molecule also registered an inhibition in vivo at 1 mg/kg in data set [4] of 92%.

Take `CC(C)[C@@H]1NC(=O)[C@H](CCCCN)NC(=O)[C@@H](Cc2c[nH]c3ccccc23)NC(=O)[C@H](Cc2ccc(O)cc2)NC(=O)[C@@H](NC(=O)[C@H](N)Cc2ccc3ccccc3c2)CSSC[C@@H](C(=O)N[C@H](C(N)=O)[C@@H](C)O)NC1=O` [lanreotide acetate]: the “binding affinity to SSTR2” value in data set [5] is reported as “high affinity”. Moreover, the “binding affinity to SSTR3” value in data set [6] is “moderate affinity”. In addition, the “binding to SSTR1” value in [7] is “do not bind”. Further, the “binding to SSTR4” value in [8] is given as “do not bind”.

In the case of `C[C@@H](O)[C@@H]1NC(=O)[C@H](CCCCN)NC(=O)[C@@H](Cc2c[nH]c3ccccc23)NC(=O)[C@H](Cc2ccccc2)NC(=O)[C@@H](NC(=O)[C@H](N)Cc2ccccc2)CSSC[C@@H](C(=O)N[C@H](CO)[C@@H](C)O)NC1=O` [octreotide], the “percentage of suppression of gastric acid secretion” value in data set [9] was 39%.

(Values after patent publication US20200000816A1, “COMPOUND HAVING SOMATOSTATIN RECEPTOR AGONISTIC ACTIVITY AND PHARMACEUTICAL USE THEREOF” (ONO PHARMACEUTICAL CO., LTD., priority 2017, published 2020).)
